According to US6492128B1, “Drug screen targeting lipoprotein-membrane anchorage” (Ramot University Authority for Applied Research & …, priority 1997, dated 2002):
Values belong to the compound of their own block, whether it stands above or below them.

How the values were obtained:
[1] = target: T1, oncogenic Ras in isolated EJ cell membranes (Homo sapiens, UniProt P01112, G12V); test: Cell-free assay: dislodging of Ras from isolated EJ cell membranes; type: biochemical, rat; conditions: for Dislodging of Ras (% of control) in a cell free system (10 μM drug): isolated EJ cell membranes, Ras in pellet; for dislodging of Ras from isolated membrane: 10 μM
T1 construct: expressed in transfected cells; host or cells: Rat1 fibroblasts transformed with Ha-Ras (EJ cells)
Protocol: The cell-free assay is utilized in these next experiments; i.e. the effect of FTS on Ras in isolated membranes was investigated. Briefly, we used EJ cell membranes (total particulate fraction) prepared in homogenization buffer (10 mM Tris-HCl, pH 8.5, 0.32 M sucrose) with protease inhibitors. The membranes were stored in aliquot at −70° C. and thawed prior to use. In a standard assay, membranes containing 15 μg of protein are incubated in a total volume of 100 μl of homogenization buffer with or without drug for 60 min at 37° C. The drugs are prepared freshly in 100% DMSO, and diluted with 50 mM Tris-HCl pH 8.5 to yield 5× drug concentration in 10% DMSO. It is important to prepare these solutions at room temperature, otherwise the drugs may precipitate. The drug solutions (20 μl) are pipetted into the assay tubes, the membrane/buffer mixtures (80 μl) are quickly added, the tubes are gently mixed, and the tubes are transferred to a 37° C. shaking water bath. The reactions are stopped by addition of 900 μl of cold homogenization buffer (without sucrose) containing 10 μg BSA. Following a 5 min incubation at room temperature, the membranes are pelleted by centrifugation in a benchtop microfuge (14,000 rpm). The supernatants are removed and the pellets are subjected to mini-SDS-PAGE followed by Immunoblotting (pan anti-Ras antibodies) and ECL assays. These assays are detailed infra. It is considered preferable to perform the reactions at 25-37° C. and to use relatively small amounts of membrane protein in the assay. Another preference is to dilute the membranes in a solution containing BSA at the end of the reaction period.

[2] = system: EJ cells; test: Inhibition of EJ cells growth; type: cell-based, rat
[3] = target: T2, oncogenic Ras in EJ cells (Homo sapiens, UniProt P01112, G12V); test: Dislodging of Ras from membranes in intact EJ cells (particulate/cytosolic fractions, immunoblot); type: cell-based, rat
T2 construct: expressed in transfected cells; host or cells: Rat1 fibroblasts transformed with Ha-Ras (EJ cells)
Protocol: Ha-Ras transformed Rat1 cells (EJ cells) were plated at a density of 4×10^6 cells/10 cm dish. After 3 hr the cells were treated for 15 hr (dose response) or for 2, 6, 12, or 24 hr (time course) with FTS (0-50 μM, dose response) or (25 μM, time course) or (0.1% DMSO, control). The cells were then detached from the dishes and washed in phosphate-buffered saline (PBS). All the subsequent procedures were carried out at 4° C. The cell pellets were homogenized in […] of homogenization buffer 20 mM Tris-HCl, pH=7.6) leupeptine (5 μg/ml), pepstatine (5 μg/ml), benzamidine (1 μM), phenylmethyl-sulphonyl fluoride (1 mM), aprotinine (5 units/ml), and MgCI2 (10 mM). Total cell membranes (P100) and cytosol (S100) were obtained by a 100,000×g centrifugation step (30 min). Following resuspension of the P100 in 750 μl of homogenization buffer, both S100 and P100 received 75 μl of 10×immunoprecipitation buffer (100 mM Tris-HCl, pH=7.5, 1.5 M NaCl, 10% Triton X-100). Samples were frozen for 1 hr at −70° C. and then thawed. Insoluble material was removed by a 10 min 10,000×g spin and the clear supernatant was used for immunoprecipitation. Samples containing 500 μg protein of P100 and the equivalent amount of S100 protein, were incubated for 12 hr with 2 μg of Y13-259 antibodies coupled to agarose bends (Oncogene Science). The beads were then precipitated and washed four times with 1 ml of immunoprecipitation buffer, twice with 1 ml of 20 mM Tris-HCl, pH=7.6, and then resuspended in 20 μl of SDS-sample buffer. Proteins were then separated by 12.5% SDS-PAGE (mini gels) and blotted onto nitrocellulose paper. The paper was blocked with 10% skimmed milk in tris-buffered saline and then incubated for 7 hr with rabbit anti-Ras serum diluted 1:1000 with tris buffered saline containing 10 mg/ml bovine serum albumin and 0.05% tween-20 (anti-Ras antiserum was prepared by immunizing rabbits with recombinant human-Ha-Ras (Marom et al.). Immunoblots were then incubated for 1 hr with 1:5000 dilution of goat anti-rabbit IgG-horseradish peroxidase (HRP) conjugate (Sigma) and developed by exposing to ECL.
Here, EJ cells were plated at a density of 4×10^6 cells/10 cm dish. The plated cells were cultured for 3 hours and then received new media containing 0.1% DMSO with or without 25 μM FTS. The cells were further cultured for 2, 4, 12, or 24 hours before harvesting and fractionation into particulate and cytosolic fractions. Ras proteins were immunoprecipitated from the fractions, subjected to SDS-PAGE, immunoblotted and developed with ECL as described in the methods, supra. The density of the bands produced from the particulate fraction (FIG. 3A) and the cytosolic fraction (FIG. 3B) was measured with a scanning densitometer. The data obtained from the densitometric analysis are presented in FIG. 3C as the ratio of values of test (FTS treated) over control (DMSO only) cells. The mean values of three separate experiments are shown.
Referring to FIGS. 4A and 4B, the effect of FTS in dislodging Ras from EJ cell membranes was investigated for dose dependence. Here, Ras protein concentration was determined in the particulate fraction of EJ cells that were exposed to the indicated concentrations of FTS (0-50 μM) and AFC (50 μM) for 15 hours as detailed for FIG. 3, supra. The densitometric analysis of the immunoblot bands shown in FIG. 4A are presented in FIG. 4B as mean % of control of three experiments.

[4] = system: total oncogenic Ras in EJ cells; test: Total cellular Ras in EJ cells (immunoblot of total homogenate); type: cell-based, rat; conditions: 15 hours, total cell homogenate; read-out: EC50 for decrease in the total amount of Ras in EJ cells
Protocol: In experiments where the total amount of Ras was estimated, the cells were homogenized as detailed above and samples of the total cell-homogenate (15 μg protein) were loaded onto the gel. For immunoblotting, we have also used the pan-Ras Ab (Calbiochem) at a 1:2000 dilution, and anti-mouse IgG-HRP at a 1:7500 dilution. To develop, the blots were exposed to ECL. The same immunoblotting procedure was also used in the cell-free system experiments. If Ras is degraded after it is dislodged, total cellular Ras should fall after FTS treatment. To investigate this, EJ cells were incubated for 15 hours, with various concentrations of FTS as detailed in FIG. 3, supra, then homogenized and total cell Ras measured by immunoblot assay. FTS caused a dose dependent decrease in the total amount of Ras in treated EJ cells. Densitometric analysis of data, such as that of FIG. 5A, is presented in FIG. 5B as the mean percent of control of 3 experiments. The EC5O was 15 μM (FIG. 5B), which is similar to that determined for the effect of FTS on particulate Ras.

[5] = system: normal Ras in Rat1 cells; test: Ras (total and particulate) in Rat1 cells; type: cell-based, rat
Protocol: In experiments where the total amount of Ras was estimated, the cells were homogenized as detailed above and samples of the total cell-homogenate (15 μg protein) were loaded onto the gel. For immunoblotting, we have also used the pan-Ras Ab (Calbiochem) at a 1:2000 dilution, and anti-mouse IgG-HRP at a 1:7500 dilution. To develop, the blots were exposed to ECL. The same immunoblotting procedure was also used in the cell-free system experiments. The effect of FTS on total Ras in Rat1 cells (Rat1 cells have normal rather than oncogenic Ras) was also examined using the same procedures and conditions as that used for EJ cells in FIGS. 5A & 5B. […] However, dislodging normal Ras in Rat1 cells required 50 μM FTS whereas the oncogenic Ras found in EJ cell is dislodged at lower concentrations of the drug (FIG. 5A). Thus, FTS may have some selectivity towards the activated forms of Ras. This may account for the fact that FTS is not toxic at doses that inhibit the growth of Ras dependent cells and tumors (see toxicology section below.)

[6] = system: G protein β (Gβ) in EJ cell membranes; test: Immunoblotting of Gβ in EJ cell membranes; type: cell-based, rat; conditions: same conditions as for Ras detection
Protocol: The level of G protein β (Gβ) was determined in membranes of EJ cells that were grown in the absence and in the presence of FTS in the same conditions that were used for Ras detection. A sample of 25 μg membrane proteins were separated by SDS-PAGE (12.5%), and blotted to nitrocellulose paper. Immunoblots were performed by using rabbit anti Gβ antibodies (dilution of 1:1000) as a first antibody and goat anti rabbit IgG HRP (Sigma) as a second antibody (dilution of 1:5000). To develop, the blots were exposed to ECL.

[7] = Toxicity / cytotoxicity of FTS
[8] = system: Erb B2 and Ha-Ras-transformed cells; conditions: cited from earlier work
[9] = system: v-raf or T-antigen transformed cells; conditions: cited from earlier work
[10] = system: Ras; conditions: cited from earlier work
[11] = FTS 5-50 μM; cited from earlier work

Structure (SMILES): CC(C)=CCC/C(C)=C/CC/C(C)=C/CSc1c(Cl)cccc1C(=O)O [3-CI-FTS]
- Dislodging of Ras (% of control) in a cell free system (10 μM drug) [1]: 109 % of control
- dislodging of Ras from isolated membrane ([1]; cell free): did not dislodge Ras
- EC50 ([2]; EJ cells): > 50 µM

Structure (SMILES): CC(C)=CCCC(C)=CCCC(C)=CCSc1cc(Cl)ccc1C(=O)O [4-Cl-FTS]
- Dislodging of Ras (% of control) in a cell free system (10 μM drug) [1]: 85 % of control
- EC50 ([2]; EJ cells): 28 ± 3 µM

Structure (SMILES): CC(C)=CCC/C(C)=C/CC/C(C)=C/CSc1ccc(Cl)cc1C(=O)O [5-Cl-FTS]
- Dislodging of Ras (% of control) in a cell free system (10 μM drug) [1]: 87 % of control
- EC50 ([2]; EJ cells): 8.5 ± 2.4 µM

Structure (SMILES): COC(=O)c1ccccc1SCC=C(C)CCC=C(C)CCC=C(C)C [FMTS, carboxymethyl FTS]
- Dislodging of Ras (% of control) in a cell free system (10 μM drug) [1]: 110 % of control
- dislodging of Ras from isolated membrane ([1]; cell free): did not dislodge Ras
- Inhibition of EJ cells Growth EC50 (μM) ([2]; EJ cells): Not active at 50 μM

More lines, main results first:

- cytosolic Ras after exposure ([3]; FTS 25 μM, 2 to 6 hours after exposure, transient): significant increase in cytosolic Ras
- decrease in the amount of particulate Ras versus control levels ([3]; FTS 25 μM, after 24 hours, EJ cells, densitometry, 3 experiments): 80%
- concentration range that will produce maximal displacement of Ras ([3]; cell membranes): 10 to 50 µM
- concentrations required to dislodge Ras from cell membranes ([3]; cell membranes): < 25 µM
- EC50 ([3]; intact EJ cells, 15 hours, 0-50 μM, read-out: EC50 for dislodging Ras from EJ cell membranes (particulate Ras)): ~10 µM
- EC50 [4]: 15 µM
- Dislodging of Ras (% of control) in a cell free system (10 μM drug) [1]: 56 % of control
- EC50 ([1]; cell free, 60 min at 37° C.): 10 to 15 µM
Structure (SMILES): CC(C)=CCCC(C)=CCCC(C)=CCSc1ccccc1C(=O)O [FTS, Farnesylthiosalicylic acid]
- concentration required for dislodging normal Ras in Rat1 cells ([5]; particulate Ras, Rat1 cells): 50 µM
- effect on total Ras in Rat1 cells ([5]; same conditions as EJ cells, dose response shifted to the right): significant decrease in Ras
- amount of Gβ associated with EJ cell membranes [6]: did not reduce the amount of Gβ
- EC50 ([2]; Rattus norvegicus, EJ): 7.5 ± 3.7 µM
- toxicity at doses that inhibit the growth of Ras dependent cells and tumors [7]: not toxic
- concentration range of dose-dependent growth inhibition [8]: 1-25 μm
- effect on growth of v-raf or T-antigen transformed cells [9]: does not affect the growth
- inhibition of farnesylation or methylation of Ras in intact cells [10]: does not inhibit farnesylation or methylation of Ras
- cytotoxicity at growth-inhibiting concentrations [11]: without producing cytotoxicity

- Dislodging of Ras (% of control) in a cell free system (10 μM drug) [1]: 100 % of control
- dislodging of Ras from isolated membrane ([1]; cell free): did not dislodge Ras
Structure (SMILES): CC(C)=CCC/C(C)=C/CSc1ccccc1C(=O)O [GTS, geranyl thiosalicylic acid]
- Inhibition of EJ cells Growth EC50 (μM) ([2]; EJ cells): Not active at 50 μM
